From US11226337B2, “Chemoproteomic profiling of protein electrophilic and oxidative post-translational modifications” (Zenagem, LLC, priority 2017, dated 2022)

How the values were obtained:
Assay in all cases: SILAC RP-ABPP
Type in all cases: cell-based
[1] = target: T1, ALKBH1 Alkylated DNA repair protein alkB (Q13686) (Homo sapiens, UniProt Q13686); conditions: SILAC H/L, HEK293T
T1 construct: In Situ Labelling of Cells with Hydrazine Probes for MS Experiments; endogenous in cells
Outline: (§1)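 Heavy SILAC HEK293T or MDA-MB-231 cells were treated with a clickable hydrazine probe; light cells received the non-clickable analogue (enrichment) or the probe plus 10-fold excess non-clickable competitor (competition). Mixed proteomes underwent CuAAC with 100 μM biotin-azide for 1 h. Heavy:light ratios were taken as median peptide ratios (≥3 peptides) averaged over ≥3 replicates.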

[2] = target: T2, ACAA1 3ketoacylCoA thiolase, peroxisomal (P09110) (Homo sapiens, UniProt P09110); conditions: SILAC H/L, MDA-MB-231
T2 construct: endogenous in cells; host or cells: HEK293T or MDA-MB-231
Outline: as §1

[3] = target: T3, PXDN Peroxidasin homolog (Q92626) (Homo sapiens, UniProt Q92626); conditions: SILAC H/L, MDA-MB-231
T3 construct: In Situ Labelling of Cells with Hydrazine Probes for MS Experiments; endogenous in cells; host or cells: HEK293T and/or MDA-MB-231
T3 sequence (Q92626 27-1479): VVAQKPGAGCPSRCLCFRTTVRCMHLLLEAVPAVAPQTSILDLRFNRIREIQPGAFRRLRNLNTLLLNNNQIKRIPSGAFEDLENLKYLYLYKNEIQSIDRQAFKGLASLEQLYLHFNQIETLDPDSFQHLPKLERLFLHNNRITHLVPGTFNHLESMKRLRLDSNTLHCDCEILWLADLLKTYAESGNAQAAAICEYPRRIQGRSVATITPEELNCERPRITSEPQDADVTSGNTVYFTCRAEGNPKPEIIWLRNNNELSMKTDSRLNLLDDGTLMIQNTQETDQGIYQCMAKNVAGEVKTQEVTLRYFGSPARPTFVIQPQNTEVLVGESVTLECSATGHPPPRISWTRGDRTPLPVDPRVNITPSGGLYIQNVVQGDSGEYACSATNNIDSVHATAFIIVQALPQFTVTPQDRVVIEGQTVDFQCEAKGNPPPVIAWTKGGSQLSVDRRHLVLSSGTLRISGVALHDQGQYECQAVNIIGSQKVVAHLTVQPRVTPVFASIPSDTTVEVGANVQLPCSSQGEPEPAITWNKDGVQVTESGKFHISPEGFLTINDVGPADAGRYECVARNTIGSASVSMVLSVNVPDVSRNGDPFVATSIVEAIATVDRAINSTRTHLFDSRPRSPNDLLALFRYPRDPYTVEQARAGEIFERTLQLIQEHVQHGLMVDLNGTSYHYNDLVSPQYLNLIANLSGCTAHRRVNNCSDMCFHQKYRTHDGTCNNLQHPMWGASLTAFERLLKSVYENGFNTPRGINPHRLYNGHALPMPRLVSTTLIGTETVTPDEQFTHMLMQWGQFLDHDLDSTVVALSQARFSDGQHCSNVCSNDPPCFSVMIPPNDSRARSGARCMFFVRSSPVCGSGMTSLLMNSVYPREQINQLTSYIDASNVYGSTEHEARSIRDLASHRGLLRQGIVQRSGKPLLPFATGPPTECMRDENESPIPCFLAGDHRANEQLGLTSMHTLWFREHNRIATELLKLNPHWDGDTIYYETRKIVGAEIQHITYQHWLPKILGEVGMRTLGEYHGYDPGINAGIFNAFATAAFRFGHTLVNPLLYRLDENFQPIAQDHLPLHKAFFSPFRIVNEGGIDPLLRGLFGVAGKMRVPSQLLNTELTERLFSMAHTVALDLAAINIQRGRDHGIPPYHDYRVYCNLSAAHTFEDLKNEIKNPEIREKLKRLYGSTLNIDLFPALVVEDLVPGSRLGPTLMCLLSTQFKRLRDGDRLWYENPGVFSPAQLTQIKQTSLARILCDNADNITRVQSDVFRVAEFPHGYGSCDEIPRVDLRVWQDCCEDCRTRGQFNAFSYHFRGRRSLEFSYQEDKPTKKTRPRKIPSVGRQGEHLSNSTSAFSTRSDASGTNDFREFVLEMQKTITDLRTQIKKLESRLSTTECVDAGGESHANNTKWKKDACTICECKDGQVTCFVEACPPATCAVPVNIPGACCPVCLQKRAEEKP
Outline: as §1

[4] = target: T4, SELENBP1 Seleniumbinding protein 1 (Q13228) (Homo sapiens, UniProt Q13228); conditions: SILAC H/L, MDA-MB-231
T4 construct: endogenous in cells; host or cells: HEK293T or MDA-MB-231
T4 sequence (Q13228 whole entry): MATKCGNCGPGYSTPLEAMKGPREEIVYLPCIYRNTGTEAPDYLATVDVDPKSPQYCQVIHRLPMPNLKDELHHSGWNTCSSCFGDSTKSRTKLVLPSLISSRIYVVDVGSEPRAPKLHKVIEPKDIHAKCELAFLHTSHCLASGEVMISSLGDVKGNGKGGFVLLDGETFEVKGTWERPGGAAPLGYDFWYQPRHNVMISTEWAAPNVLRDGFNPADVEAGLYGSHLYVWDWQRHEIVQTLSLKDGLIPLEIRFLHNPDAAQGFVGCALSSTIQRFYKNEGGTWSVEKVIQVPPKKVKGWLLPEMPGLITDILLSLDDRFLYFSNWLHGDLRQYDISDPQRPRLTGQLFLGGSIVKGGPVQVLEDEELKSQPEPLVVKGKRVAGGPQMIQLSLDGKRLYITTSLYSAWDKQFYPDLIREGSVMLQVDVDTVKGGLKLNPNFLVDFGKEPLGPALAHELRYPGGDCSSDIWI
Outline: as §1

[5] = target: T5, RRM2B Ribonucleosidediphosphate reductase (Q7LG56) (Homo sapiens, UniProt Q7LG56); conditions: SILAC H/L, MDA-MB-231
T5 construct: endogenous in cells; host or cells: HEK293T or MDA-MB-231
Outline: as §1

[6] = target: T6, FTL Ferritin light chain (P02792) (Homo sapiens, UniProt P02792); conditions: SILAC H/L, MDA-MB-231
T6 construct: endogenous in cells; host or cells: HEK293T or MDA-MB-231
T6 sequence (P02792 2-175): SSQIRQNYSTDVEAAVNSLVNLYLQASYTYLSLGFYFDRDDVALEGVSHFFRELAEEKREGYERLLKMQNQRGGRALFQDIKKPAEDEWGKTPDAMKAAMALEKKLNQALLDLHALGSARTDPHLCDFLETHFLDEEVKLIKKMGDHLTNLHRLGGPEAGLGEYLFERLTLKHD
Outline: as §1

[7] = target: T7, CTSS Cathepsin S (P25774) (Homo sapiens, UniProt P25774); conditions: SILAC H/L, MDA-MB-231
T7 construct: endogenous in cells; host or cells: HEK293T or MDA-MB-231
Outline: as §1

[8] = target: T8, ACOX3 Peroxisomal acylcoenzyme A oxidase 3 (O15254) (Homo sapiens, UniProt O15254); conditions: SILAC H/L, MDA-MB-231
T8 construct: endogenous in cells; host or cells: HEK293T or MDA-MB-231
T8 sequence (O15254 whole entry): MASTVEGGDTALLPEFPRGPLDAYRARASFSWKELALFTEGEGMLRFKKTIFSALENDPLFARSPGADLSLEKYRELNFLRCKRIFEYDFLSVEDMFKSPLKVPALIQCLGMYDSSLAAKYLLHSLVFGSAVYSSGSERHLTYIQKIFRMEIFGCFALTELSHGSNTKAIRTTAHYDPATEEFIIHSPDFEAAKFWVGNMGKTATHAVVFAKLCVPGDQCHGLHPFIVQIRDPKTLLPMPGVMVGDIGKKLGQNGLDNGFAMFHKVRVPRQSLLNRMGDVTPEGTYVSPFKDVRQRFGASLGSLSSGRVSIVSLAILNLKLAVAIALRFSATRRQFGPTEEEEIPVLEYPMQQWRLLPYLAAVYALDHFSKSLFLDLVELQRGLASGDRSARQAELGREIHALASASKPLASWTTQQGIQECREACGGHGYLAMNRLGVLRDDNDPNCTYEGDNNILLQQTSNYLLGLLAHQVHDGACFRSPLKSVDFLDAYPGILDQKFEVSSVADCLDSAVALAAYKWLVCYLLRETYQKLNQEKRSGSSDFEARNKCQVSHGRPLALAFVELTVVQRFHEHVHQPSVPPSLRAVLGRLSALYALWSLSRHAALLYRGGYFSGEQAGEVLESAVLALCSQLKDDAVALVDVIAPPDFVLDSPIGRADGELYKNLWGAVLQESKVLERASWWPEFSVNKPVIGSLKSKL
Outline: as §1

[9] = target: T9, ACOX1 Peroxisomal acylcoenzyme A oxidase 1 (Q15067) (Homo sapiens, UniProt Q15067); conditions: SILAC H/L, HEK293T
T9 construct: In Situ Labelling of Cells with Hydrazine Probes for MS Experiments; endogenous in cells; host or cells: HEK293T and/or MDA-MB-231
T9 sequence (Q15067 whole entry): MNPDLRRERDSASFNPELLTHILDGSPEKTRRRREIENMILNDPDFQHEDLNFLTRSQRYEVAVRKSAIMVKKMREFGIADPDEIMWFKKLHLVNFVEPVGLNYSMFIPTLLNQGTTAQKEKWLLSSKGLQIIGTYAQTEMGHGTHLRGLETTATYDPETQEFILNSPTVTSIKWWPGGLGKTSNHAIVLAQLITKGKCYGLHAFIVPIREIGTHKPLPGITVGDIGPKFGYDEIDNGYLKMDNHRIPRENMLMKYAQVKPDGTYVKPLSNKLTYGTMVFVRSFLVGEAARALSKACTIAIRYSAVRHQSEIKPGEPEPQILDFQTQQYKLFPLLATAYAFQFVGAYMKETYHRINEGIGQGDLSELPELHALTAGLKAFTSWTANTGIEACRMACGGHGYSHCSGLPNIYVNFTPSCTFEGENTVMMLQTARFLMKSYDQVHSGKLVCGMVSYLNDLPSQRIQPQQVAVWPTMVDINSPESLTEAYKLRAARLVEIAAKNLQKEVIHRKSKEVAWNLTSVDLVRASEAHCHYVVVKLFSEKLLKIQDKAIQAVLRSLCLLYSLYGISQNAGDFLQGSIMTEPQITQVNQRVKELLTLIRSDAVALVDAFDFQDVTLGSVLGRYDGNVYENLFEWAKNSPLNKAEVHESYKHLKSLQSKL
Outline: as §1

[10] = target: T10, FADS1 Fatty acid desaturase 1 (O60427) (Homo sapiens, UniProt O60427); conditions: SILAC H/L, HEK293T
T10 construct: In Situ Labelling of Cells with Hydrazine Probes for MS Experiments; endogenous in cells; host or cells: HEK293T and/or MDA-MB-231
T10 sequence (O60427 whole entry): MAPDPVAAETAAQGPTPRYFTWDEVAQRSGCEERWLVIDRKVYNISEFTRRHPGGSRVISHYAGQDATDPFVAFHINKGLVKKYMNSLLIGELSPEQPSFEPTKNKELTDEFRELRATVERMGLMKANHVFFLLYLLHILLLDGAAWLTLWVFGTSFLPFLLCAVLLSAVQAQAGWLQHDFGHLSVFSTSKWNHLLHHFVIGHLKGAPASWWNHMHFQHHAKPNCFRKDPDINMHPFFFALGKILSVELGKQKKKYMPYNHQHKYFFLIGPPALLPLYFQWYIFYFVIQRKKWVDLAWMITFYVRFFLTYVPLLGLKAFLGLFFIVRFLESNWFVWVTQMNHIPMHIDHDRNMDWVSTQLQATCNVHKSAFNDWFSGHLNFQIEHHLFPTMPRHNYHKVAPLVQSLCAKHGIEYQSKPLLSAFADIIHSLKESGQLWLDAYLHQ
Outline: as §1

[11] = target: T11, KDM1B Lysinespecific histone demethylase 1B (Q8NB78) (Homo sapiens, UniProt Q8NB78); conditions: SILAC H/L, HEK293T
T11 construct: In Situ Labelling of Cells with Hydrazine Probes for MS Experiments; endogenous in cells; host or cells: HEK293T and/or MDA-MB-231
Outline: as §1

[12] = target: T12, PLBD2 Putative phospholipase Blike 2 (Q8NHP8) (Homo sapiens, UniProt Q8NHP8); conditions: SILAC H/L, MDA-MB-231
T12 construct: endogenous in cells; host or cells: HEK293T or MDA-MB-231
Outline: as §1

[13] = target: T13, aminotransferase, mitoch (O15382) (Homo sapiens, UniProt O15382); conditions: SILAC H/L, MDA-MB-231
T13 construct: endogenous in cells; host or cells: HEK293T or MDA-MB-231
Outline: as §1

CAT Catalase (P04040) = target: T14, CAT Catalase (P04040) (Homo sapiens, UniProt P04040); conditions: SILAC H/L, MDA-MB-231
T14 construct: endogenous in cells; host or cells: HEK293T or MDA-MB-231
T14 sequence (P04040 whole entry): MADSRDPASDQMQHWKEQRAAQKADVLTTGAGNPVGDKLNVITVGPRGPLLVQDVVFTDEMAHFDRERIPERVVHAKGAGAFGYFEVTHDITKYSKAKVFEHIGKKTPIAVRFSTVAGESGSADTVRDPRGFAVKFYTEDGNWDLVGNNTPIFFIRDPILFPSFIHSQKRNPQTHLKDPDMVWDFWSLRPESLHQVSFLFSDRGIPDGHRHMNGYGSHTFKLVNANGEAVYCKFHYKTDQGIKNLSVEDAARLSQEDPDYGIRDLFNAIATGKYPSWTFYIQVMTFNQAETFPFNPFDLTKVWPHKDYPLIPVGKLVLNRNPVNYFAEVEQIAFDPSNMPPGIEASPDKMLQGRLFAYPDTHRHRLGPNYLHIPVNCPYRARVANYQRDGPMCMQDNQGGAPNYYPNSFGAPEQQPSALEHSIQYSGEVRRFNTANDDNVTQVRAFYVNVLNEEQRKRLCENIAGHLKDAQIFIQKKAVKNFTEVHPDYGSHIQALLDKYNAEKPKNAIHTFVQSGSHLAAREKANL
Outline: as §1

T1 sequence (Q13686 whole entry): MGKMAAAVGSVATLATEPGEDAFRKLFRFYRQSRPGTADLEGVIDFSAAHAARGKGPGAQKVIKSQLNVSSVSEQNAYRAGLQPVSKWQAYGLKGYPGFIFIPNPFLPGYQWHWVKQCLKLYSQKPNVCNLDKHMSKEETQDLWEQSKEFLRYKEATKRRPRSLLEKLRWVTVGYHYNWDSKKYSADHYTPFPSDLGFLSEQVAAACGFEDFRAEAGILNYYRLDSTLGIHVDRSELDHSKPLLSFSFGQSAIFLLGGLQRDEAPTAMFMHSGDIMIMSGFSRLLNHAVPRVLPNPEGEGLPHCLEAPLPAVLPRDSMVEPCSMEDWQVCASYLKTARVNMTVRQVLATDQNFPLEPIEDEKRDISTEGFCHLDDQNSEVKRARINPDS

enrichment ratioavg ([1]; probe 2 1 mM 0.5 h vs probe 4): 20
competition ratioavg ([1]; probe 2 vs probe 2+10x probe 4): 8
enrichment ratioavg ([2]; probe 2 1 mM 0.5 h vs probe 4): 6
competition ratioavg ([2]; probe 2 vs probe 2+10x probe 4): 2
enrichment ratioavg ([3]; probe 2 1 mM 0.5 h vs probe 4): 20
competition ratioavg ([3]; probe 2 vs probe 2+10x probe 4): 5
enrichment ratioavg ([4]; probe 2 1 mM 0.5 h vs probe 4): 20
competition ratioavg ([4]; probe 2 vs probe 2+10x probe 4): 3
enrichment ratioavg ([5]; probe 2 1 mM 0.5 h vs probe 4): 7
competition ratioavg ([5]; probe 2 vs probe 2+10x probe 4): 2
enrichment ratioavg ([6]; probe 2 1 mM 0.5 h vs probe 4): 7
competition ratioavg ([6]; probe 2 vs probe 2+10x probe 4): 3
enrichment ratioavg ([7]; probe 2 1 mM 0.5 h vs probe 4): 18
competition ratioavg ([7]; probe 2 vs probe 2+10x probe 4): 3
enrichment ratioavg ([8]; probe 2 1 mM 0.5 h vs probe 4): 20
competition ratioavg ([8]; probe 2 vs probe 2+10x probe 4): 1
enrichment ratioavg ([9]; probe 2 1 mM 0.5 h vs probe 4): 19
competition ratioavg ([9]; probe 2 vs probe 2+10x probe 4): 2
enrichment ratioavg ([10]; probe 2 1 mM 0.5 h vs probe 4): 20
competition ratioavg ([10]; probe 2 vs probe 2+10x probe 4): 4
enrichment ratioavg ([11]; probe 2 1 mM 0.5 h vs probe 4): 17
competition ratioavg ([11]; probe 2 vs probe 2+10x probe 4): 2
enrichment ratioavg ([12]; probe 2 1 mM 0.5 h vs probe 4): 9
competition ratioavg ([12]; probe 2 vs probe 2+10x probe 4): 3
enrichment ratioavg ([13]; probe 2 1 mM 0.5 h vs probe 4): 15
competition ratioavg ([13]; probe 2 vs probe 2+10x probe 4): 2
enrichment ratioavg (CAT Catalase (P04040); probe 2 1 mM 0.5 h vs probe 4): 20
competition ratioavg (CAT Catalase (P04040); probe 2 vs probe 2+10x probe 4): 1
SMILES: C#CCCNC(=O)c1ccc(NN)cc1.Cl [probe 2, N-(but-3-yn-1-yl)-4-hydrazinylbenzamide hydrochloride]
